In the experiment the target is T1, HDAC11 (Homo sapiens, UniProt Q96DB2).
T1 construct: full-length human
T1 sequence (Q96DB2 1-347): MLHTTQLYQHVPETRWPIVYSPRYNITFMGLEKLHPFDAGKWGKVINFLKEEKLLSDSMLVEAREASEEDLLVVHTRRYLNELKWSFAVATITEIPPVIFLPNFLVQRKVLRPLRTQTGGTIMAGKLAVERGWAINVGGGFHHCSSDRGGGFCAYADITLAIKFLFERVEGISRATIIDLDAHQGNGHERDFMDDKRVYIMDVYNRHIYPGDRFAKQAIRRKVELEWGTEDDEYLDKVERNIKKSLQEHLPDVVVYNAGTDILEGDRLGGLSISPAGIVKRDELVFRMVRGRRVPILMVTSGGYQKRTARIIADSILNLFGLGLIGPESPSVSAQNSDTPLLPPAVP
Nature of the experiment: biochemical. Details: continuous fluorescence deacylase assay with fatty acid-acylated TNFα-derived peptide substrate. How it is done:
In the case of HDAC11, the full-length human was expressed and purified as described in previous work. A fluorescence-based HDAC11 assay was used. The fluorescence measurements were performed using a PerkinElmer Envision 2104 multilabel plate reader (Waltham, MA, USA) at λex = 320 nm and λem = 430 nm. The reaction mixture consisted of HDAC11 and the fatty acid-acylated peptide substrate derived from TNFα in a reaction buffer—comprising 50 mM HEPES, 2 mg/mL BSA, and 70 µM TCEP—at pH 7.4, which was adjusted with NaOH (total volume 40 μL). The reactions were incubated in black 384-well plates for 30 min (scan every 30 s) at room temperature, and the increase in relative fluorescence reflecting the product formation was monitored. Positive (HDAC11, substrate, DMSO, and buffer) and negative controls (substrate, DMSO, and vuffer) were included in every measurement.

Structures are written as SMILES.

Turning to `Nc1ccccc1NC(=O)c1ccc(CNC(=O)OCc2cccnc2)cc1` [Entinostat], the IC50 is > 20 µM.

The values are drawn from publication PMC10816272, “Comparative Structure-Based Virtual Screening Utilizing Optimized AlphaFold Model Identifies Selective HDAC11 Inhibitor” (International Journal of Molecular Sciences, 2024).
